Columns and labels:
[1] = test system: skin wounds; assay: Full-thickness excisional skin wound healing (wound area, re-epithelialization); format: in vivo, mice
Method: Male, 8 week old, ICR mice were used in the following experiments. All the mice were kept under specific pathogen-free conditions in an environmentally controlled clean room at University College London and all the experiments were carried out under UK Home Office regulations. Mice were anaesthetized by halothane inhalation. Four full-thickness excisional wounds of 6 mm diameter were made on the shaved back on either side of the dorsal midline with a 6 mm biopsy punch (Kai Industries). To each pair of wounds a single topical application of 50 μl of 1 μM Cx43 as ODN (SEQ. ID No. 2) (Sigma-Genosys) in 30% Pluronic F-127 gel (Sigma-Aldrich), chilled on ice, was made to one wound, and an identical application of 1 μM sense control sODNs was made to the other. […] Targeting connexin 43 expression accelerates the rate of wound repair. Curr Biol 13, 1697-703). Each wound region was digitally photographed at the indicated time intervals, and the areas of the wounds were calculated. All wound areas were expressed as percentages of the initial wound areas. In some series of experiments, wounds and their surrounding area, including the scab and epithelial margins, were harvested with an 8 mm biopsy punch (Kai Industries) at the indicated time intervals after mice were killed with an overdose of chloroform. A minimum of eight mice were used for each time point examined.

[2] = test system: TGF-β1; assay: Immunostaining for TGF-β1 at wound sites; format: in vivo, mice; details: 2 days
Method: Male, 8 week old, ICR mice were used in the following experiments. All the mice were kept under specific pathogen-free conditions in an environmentally controlled clean room at University College London and all the experiments were carried out under UK Home Office regulations. Mice were anaesthetized by halothane inhalation. Four full-thickness excisional wounds of 6 mm diameter were made on the shaved back on either side of the dorsal midline with a 6 mm biopsy punch (Kai Industries). To each pair of wounds a single topical application of 50 μl of 1 μM Cx43 as ODN (SEQ. ID No. 2) (Sigma-Genosys) in 30% Pluronic F-127 gel (Sigma-Aldrich), chilled on ice, was made to one wound, and an identical application of 1 μM sense control sODNs was made to the other. […] R. and Becker, D. L. (2003). Targeting connexin 43 expression accelerates the rate of wound repair. Curr Biol 13, 1697-703). Each wound region was digitally photographed at the indicated time intervals, and the areas of the wounds were calculated. All wound areas were expressed as percentages of the initial wound areas. In some series of experiments, wounds and their surrounding area, including the scab and epithelial margins, were harvested with an 8 mm biopsy punch (Kai Industries) at the indicated time intervals after mice were killed with an overdose of chloroform. A minimum of eight mice were used for each time point examined. […]

[3] = test system: Swiss 3T3 fibroblasts; assay: Cell migration assay by wounding (fibroblast scrape wound assay); format: cell-based; details: 20 μM for two hours before scrape wound; 4 hours after wounding
Method: Swiss 3T3 fibroblasts were grown in Dulbecco's modified Eagle's medium (DMEM; Gibco) supplemented with 10% fetal calf serum (Labtech) and 1% penicillinstreptomycin solution (Sigma, Poole) in a 5% CO2 incubator at 37° C. Unless otherwise stated, the cells were maintained in this medium for most experiments. The cells were passaged by trypsinization and used at passages 6-10 at a confluency of Z 90%. Cells were plated on 13 mm glass coverslips in 24-well dishes (Nunc) with 4−5×10^5 cells per well containing 1 ml of medium. Cells reached confluency after 72 hours and were then used for experimentation.
The fibroblast cell assay involved creating a “wound” in a confluent monolayer of fibroblast cells. This widely used in vitro technique mimics the behaviour of migrating cells in vivo (Lampugnani, M. G. (1999) Cell Migration into a wounded area in vitro. Methods Mol Biol 96: 177-182). Wounding was performed by drawing a microelectrode across the coverslip, producing a lesion of standard width. Phase contrast images were acquired using a ×5 objective on a Zeiss inverted microscope with an incubation chamber at 370 and 5% CO2. […] Migration was quantified by image analysis, measuring the change in wound area (pixels) using Image J software (NIH). […]

GTAATTGCGGCAGGAGGAATTGTTTCTGTC (antisense GTAATTGCGGCAGGAGGAATTGTTTCTGTC; in Pluronic F-127 gel, further chemistry not given here) [Cx43 asODN]
macroscopic wound appearance and closure versus control wounds ([1]; days 1 and 2): significantly smaller, drier, less inflamed and closed faster | re-epithelialisation versus control ODN treated wounds ([1]; excisional and incisional wounds): re-epithelialise more rapidly | TGF-β1 positive elongated fibroblast-like cells at the dermal margins of the wound [2]: an additional TGF-β1 positive cell type could be seen in large numbers | TGF-β1 staining in the epidermis versus control wound epidermis [2]: much more strongly | rate of wound closure in fibroblast cultures compared to controls [3]: significantly (P=0.02) enhanced
